# Laboratory results published in patent US6303568A, “Therapeutic antimicrobial polypeptides, their use and methods for preparation” (Helix Biomedix, Inc., priority 1996, dated 2001).
# Like-named read-outs stand apart in the source and are kept apart here. Ends that are not written are not given here.
# Columns and labels:
# [1] = test system: E. coli E/2/64; assay: In vitro exposure and plate count, E. coli (Example 3); assay type: cell-based
# Description: A known number of viable microorganisms were exposed to a known concentration of the antimicrobial agent for a given time period. Following exposure, the undiluted or diluted microorganisms were plated on solid growth media, e.g., agar plates. The plates were incubated and numbers of organisms determined by making plate counts. Comparisons are then made with the non-treated bacteria for evidence of inhibition, mortality, or both. The following Examples give detailed experimental procedures and results for several microorganisms and antimicrobial agents. […] The E. coli is collected in late log phase growth at which the majority of cells are in growth phase at 18-24 hours. […] The mixtures were incubated at room temperature for 1 hour, and then at 37° C. for 30 minutes. The mixtures were diluted to 10^-1 or 10^-3 with serial dilutions at 7 drops per dilution (10 microliters per drop), plated on agar growth media, which is a tryptose agar. The plates were incubated for 3 days at 37° C. Plate counts were then made and the results given below.
# [2] = BALB/C mice
# Description: The safety of antimicrobial agents according to the present invention was tested according to standard procedures in animal studies.
# Six BALB/C mice, 4 to 5 weeks of age, maintained on commercial rodent ration fed ad libidum and in general good health were each inoculated with 1.76 milligrams/day of cecropin C-37 in balanced salt solution intramuscularly for 4 consecutive days. No other change was made in diet or conditions. […] At the end of the fourth day, three of the […] were humanely destroyed and examined. After 30 days, 3 of the 6 were given an additional 1.76 milligrams each.
# The remaining mice were all killed 7 days after the last inoculation.
# Following the procedure above in Part A, three BALB/C mice were given 110 milligrams/kilogram of body weight of cecropin C-37 injected intramuscularly in balanced salt solution for 6 days. White cell counts and differentials were performed on a daily basis. Ten days after the last inoculation, the mice were again injected intramuscularly with 110 milligrams/kilogram of body weight with Cecropin C-37. […] All three mice were killed 7 days after the final inoculation and tissues were examined.
# [3] = test system: Brucella abortus; assay type: in vivo; conditions: 0.176 milligrams/day intramuscularly for 4 days from 12th day post infection; sacrificed 16th day post infection
# [4] = test system: Brucella abortus; assay type: cell-based
molecule,measurement,setting,value
"lysozyme: lysozyme, tested by itself and combined with cecropins",Effect on E. coli (growth),"[1]; lysozyme itself at 10 micrograms, 1 milligram, and 10 milligrams per milliliter, 10^-1 and 10^-3 dilutions",positive growth
MPKWKVFKKIEKVGRNIRNGIVKAGPAIAVLGEAKAL-NH2 [Cecropin C-37],IgG antibody to the antimicrobial agent,[2]; 1.76 milligrams/day intramuscularly,None of these mice produced detectable levels
same,adverse reactions,"[2]; 1.76 milligrams/day intramuscularly for 4 consecutive days, observed twice daily",no adverse reactions
same,gross pathological changes in organs and at injection sites,"[2]; 1.76 milligrams/day intramuscularly, killed 7 days after last inoculation",no gross pathological changes
same,Cecropin C-37 antibodies,[2]; 110 milligrams/kilogram intramuscularly,No Cecropin C-37 antibodies were detected
same,adverse effects,"[2]; 110 milligrams/kilogram intramuscularly for 6 days, again ten days after",no adverse effects
same,tissue examination,"[2]; 110 milligrams/kilogram intramuscularly, killed 7 days after final inoculation",enlarged spleens but were otherwise unremarkable
same,adverse reactions,[2]; additional 1.76 milligrams each after 30 days,No adverse reactions
"CN(C)[C@@H]1C(O)=C(C(N)=O)C(=O)[C@@]2(O)C(O)=C3C(=O)c4c(O)cccc4[C@@](C)(O)[C@H]3C[C@@H]12 [Tetracycline, tetracycline]",Concentration of Brucella abortus in BALB/c Mouse Spleen Tissue After 4 Days Treatment,[3],4.4 × 10^3 per gram of spleen
KWKVFKKIEKMGRNIRNGIVKAGPAIAVLGEAKAL-NH2 [Cecropin B],Effect on Brucella abortus (growth),[4],no growth
same,Effect on E. coli (growth),[1]; 5 × 10^-6 molar,no growth
same,Effect on E. coli (growth),[1]; lower concentrations of 1 nanomolar and 1 micromolar,positive E. coli growth
